From publication PMC4928094, “The first characterization of multidrug and toxin extrusion (MATE/SLC47) proteins in zebrafish (Danio rerio)” (Scientific Reports, 2016)
Counter-ions that a name gives are not always drawn. Like-named read-outs stand apart in the source and are kept apart here.

Tests used:
[1] = target: zebrafish Mate8 (Danio rerio, UniProt A0A8M6YZ09); experiment: DAPI inhibition assay, Mate8; format: cell-based; conditions: for interaction strength: class by IC50 of DAPI uptake inhibition; for interaction with DAPI uptake (in words): co-incubation with modulator (50 μM–2 mM), Fig. 5
Description: (§1) HEK293T cells were transiently transfected as described previously[31] using the PEI (polyethyleneimine) reagent in 48-well plates. Cells were in parallel transfected with pcDNA3.1/His/LacZ plasmid and transfection efficiency was evaluated 24 h after transfection with the LacZ staining protocol.
(§2) HEK293T cells overexpressing respective single zebrafish Mate transporter were used for further experiments. […] DAPI fluorescence was measured at 360 and 460 nm […], respectively. The uptake into vector-transfected HEK293T cells (mock cells) was subtracted to obtain transporter-specific uptake.
(§3) Inhibition assays using DAPI as a fluorescent substrate were performed in the same transport medium. […] Compounds tested for interaction were checked using at least four concentrations but only a representative concentration (with the highest response or the largest concentration in solubility range) is shown.
(§4) For the purpose of IC50 calculations, data were fitted to the sigmoidal four-parameter dose-response model (variable slope),

[2] = target: zebrafish Mate6 (Danio rerio, UniProt A1L2E7); experiment: DAPI inhibition assay, Mate6; format: cell-based; conditions: for interaction strength: class by IC50 of DAPI uptake inhibition; for interaction with DAPI uptake (in words): co-incubation with modulator (50 μM–2 mM), Fig. 5
Description: as §1, §2, §3, §4

[3] = target: zebrafish Mate7 (Danio rerio, UniProt U3PTD6); experiment: DAPI inhibition assay, Mate7; format: cell-based; conditions: for interaction strength: class by IC50 of DAPI uptake inhibition; for interaction with DAPI uptake (in words): co-incubation with modulator (50 μM–2 mM), Fig. 5
Description: as §1, §2, §3, §4

[4] = target: zebrafish Mate4 (Danio rerio, UniProt U3Q0C3); experiment: DAPI inhibition assay, Mate4; format: cell-based; conditions: for interaction with DAPI uptake (in words): co-incubation with modulator (50 μM–2 mM), Fig. 5
Description: as §1, §2, §3, §4

[5] = target: T1, zebrafish Mate3 (Danio rerio, UniProt A1L1P9); experiment: DAPI inhibition assay, Mate3; format: cell-based; set-up: expressed in transfected cells; host or cells: HEK293T; conditions: for interaction with DAPI uptake (in words): Mate3, co-incubation with modulator (50 μM–2 mM), Fig. 5
T1 sequence (A1L1P9 1-590): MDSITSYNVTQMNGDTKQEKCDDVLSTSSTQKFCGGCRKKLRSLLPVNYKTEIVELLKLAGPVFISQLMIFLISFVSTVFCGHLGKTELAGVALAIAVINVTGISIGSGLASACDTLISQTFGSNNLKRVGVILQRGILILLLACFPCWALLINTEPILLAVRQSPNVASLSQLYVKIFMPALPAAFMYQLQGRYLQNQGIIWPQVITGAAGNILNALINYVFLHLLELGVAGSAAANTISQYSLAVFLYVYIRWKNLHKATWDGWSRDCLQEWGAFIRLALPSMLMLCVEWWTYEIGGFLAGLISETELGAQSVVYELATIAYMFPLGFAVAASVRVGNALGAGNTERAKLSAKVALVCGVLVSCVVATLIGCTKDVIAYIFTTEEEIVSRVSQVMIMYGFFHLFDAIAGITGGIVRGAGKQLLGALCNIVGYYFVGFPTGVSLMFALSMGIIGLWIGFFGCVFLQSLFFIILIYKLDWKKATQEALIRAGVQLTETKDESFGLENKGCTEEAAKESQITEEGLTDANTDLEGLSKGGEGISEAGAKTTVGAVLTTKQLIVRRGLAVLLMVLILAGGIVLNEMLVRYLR
Description: as §1, §2, §3, §4

[6] = system: CC[n+]1c(-c2ccccc2)c2cc(N)ccc2c2ccc(N)cc21; experiment: cells, lysate or membranes; conditions: dye uptake, HEK293T, mean ± SD
Description: (§5) Calibration curves for all substrates were generated in 0.1% SDS and in the cell matrix dissolved in 0.1% SDS. Resulting linear calibration curves were the same in the SDS and in the dissolved cell matrix. Using the calibration curves, uptake was expressed as pmol of substrate per mg of protein per minute. Total cell protein content was determined according to the Bradford method[33].
(§6) All assays were performed in 3–5 independent experiments run in triplicates. […] All calculations were performed using GraphPad Prism 5.00 for Windows (GraphPad Software, San Diego, California, USA) as described below. The kinetic parameters, Km and Vmax values were calculated using the Michaelis-Menten equation,
(§7) where V is velocity (picomoles of substrate per milligram of proteins per minute), Vmax is maximal velocity, [S] is substrate concentration and Km is the Michaelis Menten constant.

[7] = substrate: COC(=O)c1ccccc1-c1c2ccc(=N)cc-2oc2cc(N)ccc12; experiment: cells, lysate or membranes; conditions: dye uptake, HEK293T, mean ± SD, NT = no transport found
Description: as §5, §6, §7

[8] = substrate: CN(C)c1ccc(/C=C/c2cc[n+](C)cc2)cc1; experiment: cells, lysate or membranes; conditions: dye uptake, HEK293T, mean ± SD, NT = no transport found
Description: as §5, §6, §7

[9] = Mate7, inhibition of DAPI (2.5 μM) uptake, n = 3, NE = no effect in the compound solubility range, read-out: IC50
[10] = Mate4, inhibition of DAPI (1 μM) uptake, n = 3, NE = no effect in the compound solubility range, read-out: IC50
[11] = other: Mate8, NT = no transport found
[12] = other: Mate4, NT = no transport found

Chain of zebrafish Mate7 (U3PTD6 entry or part of it): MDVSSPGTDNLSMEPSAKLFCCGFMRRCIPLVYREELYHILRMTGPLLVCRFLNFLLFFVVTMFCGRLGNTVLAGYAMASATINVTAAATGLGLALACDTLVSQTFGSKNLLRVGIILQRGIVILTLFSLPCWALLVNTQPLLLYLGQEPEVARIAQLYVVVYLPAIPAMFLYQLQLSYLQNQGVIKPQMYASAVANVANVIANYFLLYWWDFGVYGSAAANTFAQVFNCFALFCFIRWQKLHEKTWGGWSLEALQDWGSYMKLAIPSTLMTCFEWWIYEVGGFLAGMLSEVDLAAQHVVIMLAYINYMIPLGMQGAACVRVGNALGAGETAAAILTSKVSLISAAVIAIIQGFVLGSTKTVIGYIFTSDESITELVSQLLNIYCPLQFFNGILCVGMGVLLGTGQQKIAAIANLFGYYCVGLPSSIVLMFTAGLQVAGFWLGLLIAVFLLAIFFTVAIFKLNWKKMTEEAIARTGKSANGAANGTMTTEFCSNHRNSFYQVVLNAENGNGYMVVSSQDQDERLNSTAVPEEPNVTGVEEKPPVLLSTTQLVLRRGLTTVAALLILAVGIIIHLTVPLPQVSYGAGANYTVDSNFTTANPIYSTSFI
Chain of zebrafish Mate6 (A1L2E7 entry or part of it): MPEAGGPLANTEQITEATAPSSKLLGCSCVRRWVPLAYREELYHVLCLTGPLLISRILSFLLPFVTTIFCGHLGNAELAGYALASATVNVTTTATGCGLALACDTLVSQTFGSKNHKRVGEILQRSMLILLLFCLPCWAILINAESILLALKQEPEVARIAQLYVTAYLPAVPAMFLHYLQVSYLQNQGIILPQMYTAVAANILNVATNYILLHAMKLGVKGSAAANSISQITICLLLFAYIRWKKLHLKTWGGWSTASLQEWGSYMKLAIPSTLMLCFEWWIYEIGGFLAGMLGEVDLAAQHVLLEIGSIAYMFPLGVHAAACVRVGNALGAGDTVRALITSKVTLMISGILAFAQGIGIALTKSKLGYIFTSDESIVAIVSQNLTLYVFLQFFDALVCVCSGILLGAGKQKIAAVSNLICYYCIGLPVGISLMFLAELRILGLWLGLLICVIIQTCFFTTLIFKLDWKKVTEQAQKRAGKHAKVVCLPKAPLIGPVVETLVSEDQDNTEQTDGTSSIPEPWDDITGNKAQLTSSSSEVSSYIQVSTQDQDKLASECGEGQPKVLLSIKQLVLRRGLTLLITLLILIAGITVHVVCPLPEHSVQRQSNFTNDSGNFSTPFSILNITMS

`C[C@]12CCC(=O)C=C1CC[C@@H]1[C@@H]2CC[C@]2(C)C(=O)CC[C@@H]12` [Androstenedione, androstenedione] was tested, and the IC50 [1] was 20.1 µM, the interaction strength ([1]; Mate8) was “strong (Compounds with IC50 of 1–29 μM were designated as strong interactors)” and the IC50 [2] was 25.3 µM. The IC50 [3] was 14.9 µM, the interaction strength ([3]; Mate7) was “strong (Compounds with IC50 of 1–29 μM were designated as strong interactors)” and the IC50 [4] was 114 µM.

With `C[C@]12CC[C@H]3[C@@H](CCC4=CC(=O)CC[C@@]43C)[C@@H]1CC[C@@H]2O` [Testosterone, testosterone] the IC50 [1] was 50.5 µM, the interaction strength ([1]; Mate8) was “moderate (IC50 of 30–99 μM indicated moderate interaction)” and the “interaction with DAPI uptake (in words)” value ([1]; Mate8) was “inhibited”. The IC50 [2] was 39 µM, the interaction strength ([2]; Mate6) was “moderate (IC50 of 30–99 μM indicated moderate interaction)” and the “interaction with DAPI uptake (in words)” value ([2]; Mate6) was “inhibited”. The IC50 [3] was 42 µM, the interaction strength ([3]; Mate7) was “moderate (IC50 of 30–99 μM indicated moderate interaction)” and the “interaction with DAPI uptake (in words)” value ([3]; Mate7) was “inhibited”. For the same molecule, the IC50 [5] was 669 µM, the “interaction with DAPI uptake (in words)” value [5] was “inhibited” and the IC50 [4] was 651 µM. The “interaction with DAPI uptake (in words)” value ([4]; Mate4) was “inhibited”.

For `CN1CC(=O)NC1=N` [creatinine], the “interaction with DAPI uptake (in words)” value ([1]; Mate8) was “did not interact”, the “interaction with DAPI uptake (in words)” value ([2]; Mate6) was “did not interact” and the “interaction with DAPI uptake (in words)” value ([3]; Mate7) was “did not interact”. For the same molecule, the “interaction with DAPI uptake (in words)” value [5] was “did not interact” and the “interaction with DAPI uptake (in words)” value ([4]; Mate4) was “did not interact”.

In the case of `CC[N+](CC)(CC)CC` [TEA, tetraethylammonium, reference compound], the “interaction with DAPI uptake (in words)” value ([1]; Mate8) is reported as “not inhibited”, the IC50 [3, 9] is reported as 3310 µM and the “interaction with DAPI uptake (in words)” value [5] is reported as “did not interact”. For the same molecule, the IC50 [4, 10] was 5240 µM.

With `CN(C)C(=N)N=C(N)N` [metformin, reference compound] the “interaction with DAPI uptake (in words)” value ([1]; Mate8) was “did not interact”, the “interaction with DAPI uptake (in words)” value ([2]; Mate6) was “did not interact” and the “interaction with DAPI uptake (in words)” value ([3]; Mate7) was “did not interact”. For the same molecule, the “interaction with DAPI uptake (in words)” value ([4]; Mate4) was “did not interact”.

In the case of `C[C@H](CCC(=O)O)[C@H]1CC[C@H]2[C@@H]3CC[C@@H]4C[C@H](O)CC[C@]4(C)[C@H]3C[C@H](O)[C@]12C` [Deoxycholate, deoxycholate], the IC50 [1] is reported as 274 µM, the interaction strength ([1]; Mate8) is reported as “weak (IC50 of 100–999 μM was classified as weak interaction)” and the IC50 [3] is reported as 203 µM. The interaction strength ([3]; Mate7) was “weak (IC50 of 100–999 μM was classified as weak interaction)”.

Work on `C=C[C@H]1C[N@@]2CC[C@H]1C[C@@H]2[C@@H](O)c1ccnc2ccc(OC)cc12` [Quinidine, quinidine, reference compound] yielded an IC50 ([5]; read-out: IC50) of 58.4 µM.

`C[n+]1ccc(-c2cc[n+](C)cc2)cc1` [Paraquat, paraquat, reference compound] was tested, and the IC50 [1] was 6290 µM, the interaction strength ([1]; Mate8) was “very weak (substances with IC50 above 1000 μM were considered very weak interactors)” and the IC50 [2] was 5730 µM. For the same molecule, the “interaction with DAPI uptake (in words)” value ([3]; Mate7) was “too weak to determine the IC50” and the IC50 [4] was 462 µM.

With `C[C@]12CC[C@H](OS(=O)(=O)O)CC1=CC[C@@H]1[C@@H]2CC[C@]2(C)C(=O)CC[C@@H]12` [DHEAS, dehydroepiandrosterone sulfate] the interaction strength ([1]; Mate8) was “strong (Compounds with IC50 of 1–29 μM were designated as strong interactors)”, the IC50 ([1]; Mate8, inhibition of DAPI (1 μM) uptake, n = 3, NE = no effect in the compound solubility range, read-out: IC50) was 26.9 µM and the interaction strength ([2]; Mate6) was “moderate (IC50 of 30–99 μM indicated moderate interaction)”. For the same molecule, the IC50 ([2]; Mate6, inhibition of DAPI (1 μM) uptake, n = 3, NE = no effect in the compound solubility range, read-out: IC50) was 39.1 µM, the interaction strength ([3]; Mate7) was “moderate (IC50 of 30–99 μM indicated moderate interaction)” and the IC50 [3, 9] was 60.2 µM. For the same molecule, the IC50 [4, 10] was 313 µM.

zebrafish Mate7 (Danio rerio) showed a Km ([6]; other: Mate7) of 0.79 ± 0.19 µM and a Vmax ([6]; other: Mate7) of 26.3 ± 1.82 pmol/mg protein/min.

Work on zebrafish Mate8 (Danio rerio) yielded a Km [6, 11] of 0.85 ± 0.12 µM and a Vmax [6, 11] of 17.0 ± 0.59 pmol/mg protein/min.

zebrafish Mate4 (Danio rerio) was tested, and the Km [6, 12] was 0.45 ± 0.08 µM and the Vmax [6, 12] was 37.4 ± 2.02 pmol/mg protein/min.

`C[C@]12C[C@H](O)[C@H]3[C@@H](CCC4=CC(=O)CC[C@@]43C)[C@@H]1CC[C@@H]2C(=O)CO` [Corticosterone, corticosterone] was tested, and the IC50 [1] was 22.1 µM, the interaction strength ([1]; Mate8) was “strong (Compounds with IC50 of 1–29 μM were designated as strong interactors)” and the IC50 [2] was 99.3 µM. For the same molecule, the interaction strength ([2]; Mate6) was “moderate (IC50 of 30–99 μM indicated moderate interaction)”, the IC50 [3] was 99.6 µM and the interaction strength ([3]; Mate7) was “weak (IC50 of 100–999 μM was classified as weak interaction)”. It also gave an IC50 [4] of 238 µM.

zebrafish Mate6 (Danio rerio) showed a Km ([6]; other: Mate6) of 2.98 ± 0.18 µM and a Vmax ([6]; other: Mate6) of 504 ± 9.79 pmol/mg protein/min.

B1: zebrafish Mate4 (Danio rerio) (protein)
chain: MEMNSIHTEDHINGYQKEEKVEDAQLTSRSICAECLRKLRRLLPVNYKEEVMQLLKLAGPVFISQLMIFLISFVSTVFCGHLGKTELAGVALAIAVINVTGISIGSGLASACDTLISQTFGSNNLKRVGVILQRGILILLLACFPCWALLINTEPILLAVRQSPNVASLSQLYVKIFMPALPATFMYQLQGLYLQNQGIIWPQVITGAAGNILNALINYVFLYLLDLGVPGSAAANAISQYSLAVILYTYIRCMGLHKATWDGWSWDCLQEWGSFIRLALPSMLMLCAEWWTYEIGGFLAGLISEVELGAQSIVYELASVMYMFPLGFAVAAGVRVGNALGAGNTEQAKLSAKVSLVCGLLVSSVIAVVIAGTNNIIGYIFSKDEDIVLRVSQVMVMYGFVHLFDATSAITGGIVRGAGKQQIGALCNMVGYYCVGFPIGVSLMFAFNMGIVGLWIGFFTCVFLQSLFFIILIYRLDWKKATQEALIRAGVQLTEIKYESFGLENKGCTEEAAQENTEEGQTDTNTDLEGLSKGEGGITDAVALVTVGEVLTAKQLAVRRGLAFFFMLLILTGGIVLNEVLIRFVI
B1 was tested, and the Km ([7]; other: Mate4) was 0.32 ± 0.03 µM, the Km ([8]; other: Mate4) was 4.49 ± 0.63 µM and the Vmax ([8]; other: Mate4) was 23.6 ± 1.23 pmol/mg protein/min.

B2: zebrafish Mate8 (Danio rerio) (protein)
chain: MDVSSPTTEASSMEPSTKLFCCRSVRRCIPLVYRQELYHILCMTGPLVASRILNYLLPFVITMFCGRLGNSVLAGYGMASATINITTAATGGGLALAADTLISQTFGGKNLRRVGIILQRSVLILLLFCLPCCALLINTQPILLLLRQDPEVARIAQLYVVCYLPAVPAMFLHQLQVAYLQNQGVILPQMYAGIAANVANVLTNYILLHWLELGVYGSAAANTISQIYICAFLYLYIRWKKLHVETWGGWSCDSLQEWDGYMKLAIPSTMMLCFEWWIYEVGGFLAGMLGELDLAAQHAVIMLAFINYMFPLGIQGAACVRVGNALGAGDTAGAIRTSKVSLTCTAALAVLQGLVLVSTKTVIGFLFTSDRHIVALVSKLLNVYCVLQFFDGLVCVSMGILLGSGQQKIAAVANFFGYYCIGLPLGTSLMFAAKLDVVGFWLGLLICVCVQSSFFIGVIFKFNWERVTKEAVERAGRTKISAMTAPDSITARHRENGDEYITVSAADPNVEPNATGVEEKPPVLLSTSQLVLRRGLTTLAALLILAGGITVHLIVPLPQMFYGAAANFTLNSNFTTPSSFIHSTSASL
With B2 the Km ([7]; other: Mate8) was 0.88 ± 0.14 µM, the Km ([8]; other: Mate8) was 2.34 ± 0.37 µM and the Vmax ([8]; other: Mate8) was 22.2 ± 1.09 pmol/mg protein/min.
